Assay results from the supplement of paper PMC2824726.
Values joined by “and” are separate entries in the source; they are usually repeats but may differ in a detail not shown here. Identical values can stand only once.

System: MDA-MB-231
Test: shRNA barcode abundance ratio t_end/t_zero (depletion over 4 weeks of proliferation) (log2 ratio); higher = less depletion (weaker anti-proliferative effect of the shRNA)
Conditions: time after t zero 28 days
Outline: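 Cells of the MDA-MB-231 line were transduced with a pooled lentiviral shRNA library at an MOI of 0.3 and selected in 0.5 μg/ml puromycin, and genomic DNA was collected from three biological replicates at 5 days (t_zero) and 33 days post-infection. The barcodes were amplified by PCR, labelled with biotin and hybridised for 16 h at 45°C to Geniom One tiling arrays carrying six 25-nt probes per barcode, then detected with streptavidin phycoerythrin. For the abundance ratio, each t_end/t_zero signal ratio is normalised to the subarray median and averaged over background-filtered probes. This average is taken on a log2 scale.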

Sequence	shRNA barcode abundance ratio t end/t zero (log2)
CGGATTAGGGCATTTGAGAAA (targeted gene: IL7)	0.319
GGACAGTGCTTGATACAGGAA (targeted gene: PIM1)	0.128
GGCTACTATGACCAATAGAAG (targeted gene: BFAR)	0.107
GGACAAAGTTTACCAAATGAA (targeted gene: CASP8)	0.402
GCTGTAACTACTTTATAACTA (targeted gene: RHOA)	-0.0204
ACTTACACTTAGAAATTAAAT (targeted gene: XIAP)	0.473
GGATAGACTGGTCTAGAATAA (targeted gene: RALBP1)	0.174
CCGTGCTAACTGTGTGTACAT (targeted gene: PEA15)	-1.15
CCAGATTTCTTACCTACCATA (targeted gene: BIRC2)	0.213
GCATCAGATGATTTGTCATTA (targeted gene: BIRC2)	0.0467 and 0.133
GCTAAGAGATTCGCCTTAAAT (targeted gene: SOCS3)	0.308
GGTCACTTTGTATATAGAATT (targeted gene: HBXIP)	0.371
ACTCTAATCTCCACATTTATA (targeted gene: XIAP)	0.0933
GCAAATGGAATCTTTATGAAA (targeted gene: MALT1)	0.375
CCAATTCAAGTGATCCGCAAA (targeted gene: BAG3)	0.175
CCTTTGAACTTGATTGCCTAT (targeted gene: SFRP1)	-0.127
CCCTTCTTTGGGAATATAATT (targeted gene: CBX4)	0.505
GGATGTTGGAAATTACTATTA (targeted gene: HDAC1)	0.178
GGACTCTCTTCTAGAGCCATA (targeted gene: BCL2L2)	0.635
GCCTATGACTTTATCATGAAA (targeted gene: ABCB1)	0.0933

Sequence	shRNA barcode abundance ratio t end/t zero (log2)
CGACTTAGACTTGACCTATAT (targeted gene: PTEN)	-0.304
GGGAATGATCAGATTCCTTTA (targeted gene: BFAR)	0.171
CCAGAGTAACTCTAGTCAGTT (targeted gene: NUP62)	-2.05
GCACATCCTTGCTAATTTCAA (targeted gene: TPT1)	0.0219
CCAACATATCTCACTCTAGAA (targeted gene: BARD1)	0.531
GCGCAAGAAATCCCGGTATAA (targeted gene: VEGFA)	0.382
GCTTCCTACAGCACAACAAAT (targeted gene: VEGFA)	0.437
CCAAGTAGACTCACTCCTTAA (targeted gene: BAG4)	-0.102
GCTCAACAGATCCAATTTCAT (targeted gene: RBKS)	-0.0517
GCTGGACAACTTGTTGTTAAA (targeted gene: IL10)	0.168
GCGTGCCATGACAAAGGATAA (targeted gene: HSPA8)	-0.885
CGTTATTAACTTGTTATTTAG (targeted gene: API5)	0.468
CGAGAGAGTTTCCCTACGTAT (targeted gene: CDH1)	0.249
GCAGATGAAGATCATCGAAAT (targeted gene: BRAF)	0.116
GCACAAGCAGCTGATCCGATT (targeted gene: IL4)	-0.0177
CCAACACGTTTGAACTGAAAT (targeted gene: BIRC3)	0.578
GGCCATTATGCACAGGTTGAA (targeted gene: CD40LG)	0.119
CCACCCTGAGCCATTATCTAA (targeted gene: PSEN1)	0.146
CCAGAGAATTTGCTTACCAAA (targeted gene: RALBP1)	0.116
GGCCTTGGAACTGATGAAGAT (targeted gene: ANXA1)	0.259
